Literature values as cited in US9889150B2, “Agents for the prevention and/or treatment of central nervous system damage” (The University Of Liverpool, priority 2012, dated 2018).

Experiments:
OECs and astrocytes = details: previous work; cited from earlier work
FGFR3 = FGFR3 (Homo sapiens, UniProt P22607); details: cited from earlier work
Chain of FGFR3 (P22607 23-806, species assumed): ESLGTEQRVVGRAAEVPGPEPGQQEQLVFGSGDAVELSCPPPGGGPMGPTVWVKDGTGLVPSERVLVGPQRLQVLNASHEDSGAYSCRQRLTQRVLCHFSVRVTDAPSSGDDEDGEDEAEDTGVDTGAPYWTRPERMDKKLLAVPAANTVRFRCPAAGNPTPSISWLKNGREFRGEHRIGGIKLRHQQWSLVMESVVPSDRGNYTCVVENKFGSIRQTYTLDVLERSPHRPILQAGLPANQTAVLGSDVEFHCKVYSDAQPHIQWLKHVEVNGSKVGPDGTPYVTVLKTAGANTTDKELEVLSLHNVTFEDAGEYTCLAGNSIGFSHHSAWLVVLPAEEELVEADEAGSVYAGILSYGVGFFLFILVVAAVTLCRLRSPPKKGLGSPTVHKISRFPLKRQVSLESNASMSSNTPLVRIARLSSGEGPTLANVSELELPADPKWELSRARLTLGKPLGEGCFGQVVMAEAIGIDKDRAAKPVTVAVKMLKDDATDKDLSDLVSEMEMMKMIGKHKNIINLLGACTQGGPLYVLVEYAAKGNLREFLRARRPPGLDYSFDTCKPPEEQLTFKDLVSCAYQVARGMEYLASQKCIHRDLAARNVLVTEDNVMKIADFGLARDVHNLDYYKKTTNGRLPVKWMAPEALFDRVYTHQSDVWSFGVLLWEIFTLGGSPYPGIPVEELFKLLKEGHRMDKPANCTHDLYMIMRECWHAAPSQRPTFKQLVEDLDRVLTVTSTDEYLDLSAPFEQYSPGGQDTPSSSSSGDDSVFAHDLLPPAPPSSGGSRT

In the case of `Cc1c[nH]c(/C=C2\C(=O)Nc3ccccc32)c1CCC(=O)O` [SU5402], the “SCM-induced boundary formation in OEC/astrocyte cultures” value (OECs and astrocytes) is given as “disrupts SCM-induced boundary formation” and the “inhibition of FGFR3” value (FGFR3) is given as “effectively inhibit FGFR3”.
